{
  "source": "patent US20260115265A1",
  "about": "“METHODS AND COMPOSITIONS FOR PREVENTING OR TREATING FOOD ALLERGIES” (Revolo Biotherapeutics Limited, priority 2022, published 2026)",
  "test": "Serum/plasma pharmacokinetics (half-life)",
  "format": "in vivo",
  "note": "Where two headings read alike, the source gives them in different places. Ends that are not written are not given here.",
  "data": [
    {"sequence": "DGSVVVNKVSELPAGHGLNVNTLSYGDLAAD ['1104]", "values": [
      {"measurement": "half-life", "setting": "in vivo, across species, read-out: half-life", "value": "10 to 15", "unit": "min"},
      {"measurement": "half-life", "setting": "serum, read-out: serum PK", "value": "~15", "unit": "min"}
    ]}
  ]
}
